Assay results taken from patent US20250304587A1, “WEE1 INHIBITOR, PREPARATION THEREFOR AND USE THEREOF” (JIANGSU TASLY DIYI PHARMACEUTICAL CO., LTD., priority 2022, published 2025).

Key:
HT-29 cells = assay: Cell Titer-Glo anti-proliferation, HT-29 cells; type: cell-based, human; conditions: 3 days, read-out: Anti-proliferative activity HT-29 (IC50 class)
Experimental: (§1) A. Evaluation of the Anti-Proliferative Effect of Compounds on BxPC3, HT-29 and OVCAR-3 Cells by the Cell Titer-Glo Method
(§2) Compound solutions of different concentration gradients were prepared. […] The cell growth group without compound was used as a positive control (maximum signal control) and the medium was used as a negative control (minimum signal control), while ensuring that the final level of DMSO in each reaction well was 0.2%. After removing the medium from the 384-well plate, 25 μl of the configured compound at different concentrations was transferred into the well plate and the compound and cells were incubated in the cell incubator at 37° C. with 5% CO2 for 3 days.
(§3) The 384-well plates were removed from the cell incubator and allowed to equilibrate for 1 h to room temperature. 25 μl of Cell Titer-Glo assay was added to each well, lysed on a shaker for 2 min and then read out (Luminescence) using a BMG PHERAStar after 10 min incubation. Calculate the inhibition rate from the luminescence signal.
(§4) to calculate the rate of inhibition of the cells by different concentrations of the compounds. The IC50 of the compound on cell activity inhibition was calculated by fitting a log(inhibitor) vs. response-Variable slope model to GraphPad Prism 6. The fitted equation was: Y=Bottom+(Top-Bottom)/(1+10^((Log IC50−X)*HillSlope)), where Y represents the rate of inhibition and X represents the concentration of the known compound after Log.

OVCAR-3 cells = assay: Cell Titer-Glo anti-proliferation, OVCAR-3 cells; type: cell-based; conditions: 3 days, read-out: Anti-proliferative activity OVCAR-3 (IC50 class)
Experimental: as §1, §2, §3, §4

BxPC3 cells = assay: Cell Titer-Glo anti-proliferation, BxPC3 cells; type: cell-based, human; conditions: 3 days, read-out: Anti-proliferative activity BxPC3 (IC50 class)
Experimental: as §1, §2, §3, §4

Row | IC50 (HT-29 cells) | IC50 (OVCAR-3 cells) | IC50 (BxPC3 cells) | Structure (SMILES)
1 | 1000 to 2000 nM | 1000 to 2000 nM | 1000 to 2000 nM | C=CCn1c(=O)c2cnc(Nc3ccc(N4C[C@@H]5C[C@H]4CN5C)cc3)nc2n1-c1ccc2c(n1)[C@](C)(O)C1(CC2)CC1 (single isomer, unassigned) [Compound 45b]
2 | 100 to 1000 nM | 100 to 1000 nM | 100 to 1000 nM | C=CCn1c(=O)c2cnc(Nc3ccc(N4CC5CC(C4)N5C(C)=O)cc3)nc2n1-c1ccc2c(n1)[C@](C)(O)C1(CC2)CC1 (single isomer, unassigned) [Compound 50b]
3 | 100 to 1000 nM | 100 to 1000 nM | 100 to 1000 nM | C=CCn1c(=O)c2cnc(Nc3ccc(N4CC5CC(C4)N5CCF)cc3)nc2n1-c1ccc2c(n1)[C@](C)(O)C1(CC2)CC1 (single isomer, unassigned) [Compound 59a]
4 | 100 to 1000 nM | 100 to 1000 nM | 100 to 1000 nM | C=CCn1c(=O)c2cnc(Nc3ccc(N4CC5CN(C)CC5C4)cc3)nc2n1-c1ccc2c(n1)C(O)C1(CC2)CC1 (single isomer, unassigned) [Compound 63a]
5 | 100 to 1000 nM | 1000 to 2000 nM | 1000 to 2000 nM | C=CCn1c(=O)c2cnc(Nc3ccc(N4C[C@H]5CN(C)C[C@H]5C4)cc3)nc2n1-c1ccc2c(n1)[C@H](O)C1(CC2)CC1 (single isomer, unassigned) [Compound 63b]
6 | 100 to 1000 nM | 100 to 1000 nM | 100 to 1000 nM | C=CCn1c(=O)c2cnc(Nc3ccc(N4CC5CC(C4)N5C)cc3)nc2n1-c1ccc2c(n1)[C@](O)(CC)C1(CC2)CC1 (single isomer, unassigned) [Compound 64a]
7 | 100 to 1000 nM | 100 to 1000 nM | 100 to 1000 nM | C=CCn1c(=O)c2cnc(Nc3ccc(N4CC5CC(C4)N5C)cc3)nc2n1-c1ccc2c(n1)[C@@](O)(CC)C1(CC2)CC1 (single isomer, unassigned) [Compound 64b]
8 | 1000 to 2000 nM | 2000 to 5000 nM | 2000 to 5000 nM | C=CCn1c(=O)c2cnc(Nc3ccc(N4CCN(C)[C@H](C)C4)cc3)nc2n1-c1ccc2c(n1)[C@@H](O)C1(CC2)CC1 (single isomer, unassigned) [Compound 68a]
9 | 1000 to 2000 nM | 2000 to 5000 nM | 2000 to 5000 nM | C=CCn1c(=O)c2cnc(Nc3ccc(N4CCN(C)CC4)c(F)c3)nc2n1-c1ccc2c(n1)C(O)(CC)C1(CC1)C2 (stereo not drawn) [Compound 33]
10 | 100 to 1000 nM | 1000 to 2000 nM | 1000 to 2000 nM | C=CCn1c(=O)c2cnc(Nc3ccc(N4CCC5(CCN(C)CC5)CC4)cc3)nc2n1-c1ccc2c(n1)[C@@H](O)C1(CC2)CC1 [Compound 38a]
11 | 100 to 1000 nM | 100 to 1000 nM | 100 to 1000 nM | C=CCn1c(=O)c2cnc(Nc3ccc(N4CCC(N(C)C)CC4)c(C)c3)nc2n1-c1ccc2c(n1)C(C)(O)C1(CC2)CC1 (stereo not drawn) [Compound 52b]
12 | 100 to 1000 nM | 100 to 1000 nM | 100 to 1000 nM | C=CCn1c(=O)c2cnc(Nc3ccc(N4CCC(N(C)C)CC4)cc3)nc2n1-c1ccc2c(n1)C(O)(C(F)(F)F)C1(CC2)CC1 (stereo not drawn) [Compound 54b]
13 | 100 to 1000 nM | 100 to 1000 nM | 100 to 1000 nM | C=CCn1c(=O)c2cnc(Nc3ccc(N4CCC5(CCN(C)CC5)CC4)c(F)c3)nc2n1-c1ccc2c(n1)C(O)C1(CC2)CC1 (stereo not drawn) [Compound 62b]
14 | 100 to 1000 nM | 1000 to 2000 nM | 100 to 1000 nM | C=CCn1c(=O)c2cnc(Nc3ccc(N4CCC(N(C)C)CC4)cc3)nc2n1-c1ccc2c(n1)C(O)C1(CC2)CC1 (stereo not drawn) [Compound 66b]
15 | 1000 to 2000 nM | 1000 to 2000 nM | 1000 to 2000 nM | C=CCn1c(=O)c2cnc(Nc3ccc(N4CC5CC(C4)N5C)c(C)c3)nc2n1-c1ccc2c(n1)C(O)C1(CC2)CC1 (stereo not drawn) [Compound 67]

Continued, compound first:

Row | Structure (SMILES) | IC50 (HT-29 cells) | IC50 (OVCAR-3 cells) | IC50 (BxPC3 cells)
16 | C=CCn1c(=O)c2cnc(Nc3ccc(N4C[C@@H]5C[C@H]4CN5C)cc3)nc2n1-c1ccc2c(n1)[C@@](C)(O)C1(CC2)CC1 (single isomer, unassigned) [Compound 45a] | 100 to 1000 nM | 100 to 1000 nM | 1000 to 2000 nM
17 | C=CCn1c(=O)c2cnc(Nc3ccc(N4CCC(N(C)C)CC4)c(C)c3)nc2n1-c1ccc2c(n1)[C@@H](O)C1(CC2)CC1 (single isomer, unassigned) [Compound 48a] | 100 to 1000 nM | 100 to 1000 nM | 100 to 1000 nM
18 | C=CCn1c(=O)c2cnc(Nc3ccc(N4CC5CC(C4)N5C(C)=O)cc3)nc2n1-c1ccc2c(n1)[C@@](C)(O)C1(CC2)CC1 (single isomer, unassigned) [Compound 50a] | 100 to 1000 nM | 100 to 1000 nM | 100 to 1000 nM
19 | C=CCn1c(=O)c2cnc(Nc3ccc(N4CCN(C)CC4)cc3)nc2n1-c1ccc2c(n1)[C@](O)(C(F)(F)F)C1(CC2)CC1 (single isomer, unassigned) [Compound 53a] | 1000 to 2000 nM | 2000 to 5000 nM | 2000 to 5000 nM
20 | C=CCn1c(=O)c2cnc(Nc3ccc(N4CCC(N(C)C)CC4)cc3)nc2n1-c1ccc2c(n1)[C@](O)(C(F)(F)F)C1(CC2)CC1 (single isomer, unassigned) [Compound 54a] | 1000 to 2000 nM | 2000 to 5000 nM | 2000 to 5000 nM
21 | C=CCn1c(=O)c2cnc(Nc3ccc(N4CCN(C(C)C)CC4)cc3)nc2n1-c1ccc2c(n1)C(O)C1(CC2)CC1 (single isomer, unassigned) [Compound 57a] | 1000 to 2000 nM | 2000 to 5000 nM | 2000 to 5000 nM
22 | C=CCn1c(=O)c2cnc(Nc3ccc(N4CC5CN(C)CC5C4)cc3)nc2n1-c1ccc2c(n1)C(O)(C(F)(F)F)C1(CC2)CC1 (single isomer, unassigned) [Compound 58a] | 100 to 1000 nM | 2000 to 5000 nM | 1000 to 2000 nM
23 | C=CCn1c(=O)c2cnc(Nc3ccc(N4CCC(N(C)C)C(F)C4)cc3)nc2n1-c1ccc2c(n1)C(C)(O)C1(CC2)CC1 (single isomer, unassigned) [Compound 60b] | 100 to 1000 nM | 100 to 1000 nM | 100 to 1000 nM
24 | C=CCn1c(=O)c2cnc(Nc3ccc(N4CCC5(CCN(C)CC5)CC4)c(C)c3)nc2n1-c1ccc2c(n1)C(O)C1(CC2)CC1 (single isomer, unassigned) [Compound 61a] | 100 to 1000 nM | 100 to 1000 nM | 100 to 1000 nM
25 | C=CCn1c(=O)c2cnc(Nc3ccc(N4CCC5(CCN(C)CC5)CC4)c(F)c3)nc2n1-c1ccc2c(n1)C(O)C1(CC2)CC1 (single isomer, unassigned) [Compound 62a] | 100 to 1000 nM | 1000 to 2000 nM | 1000 to 2000 nM
26 | C=CCn1c(=O)c2cnc(Nc3ccc(N4CCC(N(C)C)CC4)cc3)nc2n1-c1ccc2c(n1)C(O)C1(CC2)CC1 (single isomer, unassigned) [Compound 66a] | 1000 to 2000 nM | 2000 to 5000 nM | 2000 to 5000 nM
27 | C=CCn1c(=O)c2cnc(Nc3ccc(N4CCC5(CCN(C)CC5)CC4)cc3)nc2n1-c1ccc2c(n1)[C@](O)(CC)C1(CC2)CC1 (single isomer, unassigned) [Compound 69a] | 100 to 1000 nM | 100 to 1000 nM | 1000 to 2000 nM
28 | C=CCn1c(=O)c2cnc(Nc3ccc(N4CC5CC(C4)N5C)cc3)nc2n1-c1ccc2c(n1)[C@](C)(O)C1(CC2)CC1 [Compound 7b] | 100 to 1000 nM | 100 to 1000 nM | 100 to 1000 nM
29 | C=CCn1c(=O)c2cnc(Nc3ccc(N4CC5CC(C4)N5C)cc3)nc2n1-c1ccc2c(n1)C(C)(O)C1(CC1)C2 (stereo not drawn) [Compound 13] | 100 to 1000 nM | 100 to 1000 nM | 100 to 1000 nM
30 | C=CCn1c(=O)c2cnc(Nc3ccc(N4C[C@H]5C[C@@H]4CN5C)cc3)nc2n1-c1ccc2c(n1)C(O)(CC)C1(CC1)C2 (stereo partly drawn) [Compound 26] | 1000 to 2000 nM | 2000 to 5000 nM | 2000 to 5000 nM
31 | C=CCn1c(=O)c2cnc(Nc3ccc(N4CCN(C)[C@H](C)C4)cc3)nc2n1-c1ccc2c(n1)C(O)(CC)C1(CC1)C2 (stereo partly drawn) [Compound 40] | 100 to 1000 nM | 100 to 1000 nM | 1000 to 2000 nM
32 | C=CCn1c(=O)c2cnc(Nc3ccc(N4CCN(C)CC4)cc3)nc2n1-c1ccc2c(n1)C(O)(C(F)(F)F)C1(CC2)CC1 (stereo not drawn) [Compound 53b] | 100 to 1000 nM | 1000 to 2000 nM | 100 to 1000 nM
33 | C=CCn1c(=O)c2cnc(Nc3ccc(N4CC5CC(C4)N5CCF)cc3)nc2n1-c1ccc2c(n1)C(C)(O)C1(CC2)CC1 (stereo not drawn) [Compound 59b] | 100 to 1000 nM | 1000 to 2000 nM | 1000 to 2000 nM
34 | C=CCn1c(=O)c2cnc(Nc3ccc(N4CCC(N(C)C)[C@H](F)C4)cc3)nc2n1-c1ccc2c(n1)C(C)(O)C1(CC2)CC1 (stereo partly drawn) [Compound 60a] | 100 to 1000 nM | 100 to 1000 nM | 100 to 1000 nM
35 | C=CCn1c(=O)c2cnc(Nc3ccc(N4CCC(N(C)C)CC4)cc3)nc2n1-c1ccc2c(n1)C(C)(O)C1(CC2)CC1 (stereo not drawn) [Compound 65b] | 100 to 1000 nM | 100 to 1000 nM | 100 to 1000 nM
36 | C=CCn1c(=O)c2cnc(Nc3ccc(N4CCN(C)C(C)C4)cc3)nc2n1-c1ccc2c(n1)C(O)C1(CC2)CC1 (stereo not drawn) [Compound 68b] | 100 to 1000 nM | 100 to 1000 nM | 100 to 1000 nM
37 | C=CCn1c(=O)c2cnc(Nc3ccc(N4CCC5(CCN(C)CC5)CC4)cc3)nc2n1-c1ccc2c(n1)C(O)(CC)C1(CC2)CC1 (stereo not drawn) [Compound 69b] | 1000 to 2000 nM | 1000 to 2000 nM | 1000 to 2000 nM
